Test results reported in patent US11214554B2, “Indoleamine 2,3-dioxygenase inhibitor, method for preparation and use thereof” (NANJING HUAWE MEDICINE TECHNOLOGY GROUP CO., LTD., priority 2018, dated 2022).
Read-outs that look alike come from different tables or passages of the source.

What was measured:
IDO1 enzyme = IDO1 enzyme (Homo sapiens (Human), UniProt P14902); experiment: Determination of the IDO1 inhibitory activity of compounds (enzyme assay, absorbance at 480 nm); assay type: biochemical; settings: 50 nM IDO1, 37° C., 30 minutes, pH 6.5, 1% DMSO; average of two tests
Protocol: 100 mM PBS containing 400 μM L-tryptophan, 20 mM ascorbate, 20 μM methylene blue and 1000 U/ml catalase, pH 6.5
All compounds were dissolved with DMSO. During the assay, each compound was diluted to a concentration as needed. The compound of each concentration was added to multi-wells, and the final concentration of DMSO was controlled at 1%.
a.) the reaction mixture was prepared by adding 50 nM IDO1 and the desired concentration of the test compound to 100 μL of IDO1 assay buffer. IDO1 and assay buffer need to be preheated to 37° C.
b.) The mixture was reacted in a constant temperature water tank at 37° C. for 30 minutes.
c.) 50 μL of 30% trichloroacetic acid was added.
d.) The above mixture was reacted in a constant temperature water tank at 52° C. for 30 minutes.
e.) The reaction mixture was centrifuged at 12000 g for 10 minutes at room temperature.
f.) 100 μL of the obtained supernatant and 100 μL of Ehrlich reagent were mixed.
g.) the absorbance at 480 nm was measured using an M5 microplate reader.
4. Data Analysis Inhibition rate=(ODpostive−ODsample)/(ODpositive−ODnegative)*100% 5. Results and Discussion
In this experiment, the inhibitory activity of the test compounds on the IDO1 enzyme was tested. Compounds of each diluted concentration were tested in multi-wells. The final concentration of the reaction system in DMSO was controlled to 1%. The inhibition rate was tested twice, and the average value was taken.

[1] = molecular target: IDO protease in highly expressed HeLa cells (Homo sapiens (Human), UniProt P14902); experiment: Inhibitory activity of compounds on IDO protease in highly expressed HeLa cells; assay type: cell-based; settings: highly expressed HeLa cell line
Protocol: This method was used to determine the inhibitory effect of the compounds of the invention on the inhibitory activity of IDO protease in highly expressed HeLa cells.
Highly expressed HeLa cell line
a.) 50 μL of 30% trichloroacetic acid was added.
b.) The mixture was reacted in a constant temperature water tank at 52° C. for 30 minutes.
c.) The above mixture was centrifuge at 12,000 g for 10 minutes at room temperature.
d.) 100 μL of the supernatant was mixed with 100 μL of Ehrlich reagent.
e.) the absorbance was measured at 480 nm using an M5 microplate reader.
The software Graphpad Prism 5 was used with the calculation formula of log(inhibitor) vs. normalized response to perform IC50 curve fitting and the IC50 value was calculated.

[2] = Pharmacokinetic evaluation in SD rats after oral administration by single gavage; assay type: in vivo; settings: rat, PO 75 mg/kg, plasma; for half-life: read-out: t½ (converted)
Protocol: 1. Experimental animals: 100 (half male and half female) SPF grade SD rats were purchased from Shanghai Cypre-Bikai Experimental Animal Co., Ltd. Among them, 72 medically qualified and healthy SD rats without abnormality (half male and half female) were used for the study. 2. Animal Administration
72 SD rats (half male and half female) were tested according to the following table. The drug samples were stirred at least 10 minutes before administration.
Blood samples were obtained through the jugular vein puncture, and each sample was collected for about 0.25 mL and added with heparin sodium for anticoagulation. The blood sampling was performed at time points as follows:
for oral administration group, before administration, 0.25 h, 0.5 h, 1 h, 2 h, 4 h, 6 h, 8 h, 24 h after administration.
After collection, the blood samples were placed on ice and the plasma was separated by centrifugation (centrifugation conditions: 8000 rpm, 6 minutes, 2-8° C.). The collected plasma was stored at −80° C. before analysis. Plasma samples were analyzed by the analysis department of the experimental institution using LC-MS/MS for the content of the test compound in the rat plasma. The LLOQ of the detection substance was 1 ng/mL.
According to the blood plasma concentration data of the drugs, the pharmacokinetic calculation software WinNonlin5.2 non-compartmental model was used to calculate the pharmacokinetic parameters AUC0-t, Cmax, Tmax, T1/2 d and other parameters of the test samples and their average value and standard deviation.
When pharmacokinetic parameters were calculated for samples with lower concentration than the lower limit of quantification, samples taken before the curve reached Cmax should be calculated with zero value, and samples taken after the curve reached Cmax should be calculated with non-quantitative (BLQ).
The main pharmacokinetic parameters of compounds in SD rats plasma after oral administration by single gavage

Sequence of IDO protease in highly expressed HeLa cells (P14902 whole entry): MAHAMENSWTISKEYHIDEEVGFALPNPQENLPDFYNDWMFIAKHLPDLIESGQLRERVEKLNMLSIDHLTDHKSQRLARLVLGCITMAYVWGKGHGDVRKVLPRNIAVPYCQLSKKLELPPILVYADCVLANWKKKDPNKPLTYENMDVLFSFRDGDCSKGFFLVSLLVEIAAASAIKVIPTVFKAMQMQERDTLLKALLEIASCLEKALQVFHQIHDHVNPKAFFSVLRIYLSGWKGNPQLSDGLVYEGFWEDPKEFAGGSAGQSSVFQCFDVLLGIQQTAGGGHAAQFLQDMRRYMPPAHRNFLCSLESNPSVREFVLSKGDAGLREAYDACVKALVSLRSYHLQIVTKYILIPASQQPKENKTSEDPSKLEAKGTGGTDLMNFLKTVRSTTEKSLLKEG
Sequence of IDO1 enzyme (P14902 whole entry, species assumed): as the sequence (P14902 whole entry) above

Compound `O/N=C(\Nc1ccc(F)c(C(F)(F)F)c1)c1nonc1NOCCc1cccs1` [Compound I-7] has an IC50 (IDO1 enzyme) of 113 nM.

With `Cc1ccc(CCONc2nonc2/C(=N/O)Nc2ccc(F)c(Br)c2)cc1` [Compound I-8] the IC50 (IDO1 enzyme) was 94 nM.

Compound `O=C(NCCONc1nonc1/C(=N/O)Nc1ccc(F)c(C(F)(F)F)c1)c1ccc(F)cc1` [Compound I-9] has an IC50 (IDO1 enzyme) of 85 nM.

`Nc1ncc(C(=O)NCCONc2nonc2/C(=N/O)Nc2ccc(F)c(Cl)c2)s1` [Compound I-10] gave an IC50 (IDO1 enzyme) of 90 nM.

`CS(=O)(=O)NCCONc1nonc1/C(=N/O)Nc1ccc(F)c(F)c1` [Compound I-13] showed an IC50 (IDO1 enzyme) of 124 nM.

For `OCCONc1nonc1/C(=N/O)Nc1ccc(F)c(Br)c1` [Compound I-14], the IC50 (IDO1 enzyme) was 81 nM.

`OCCCONc1nonc1/C(=N/O)Nc1ccc(F)c(Cl)c1` [Compound I-15] gave an IC50 (IDO1 enzyme) of 93 nM.

For `NC(CCONc1nonc1/C(=N/O)Nc1ccc(F)c(Br)c1)C(=O)O` (stereo not drawn) [Compound I-16], the IC50 [1] was 35 nM and the IC50 (IDO1 enzyme) was 42 nM.

`O=C(O)CCCONc1nonc1/C(=N/O)Nc1ccc(F)c(Br)c1` [Compound I-18] showed an IC50 (IDO1 enzyme) of 183 nM.

Compound `NS(=O)(=O)NC1(CONc2nonc2/C(=N/O)Nc2ccc(F)c(Br)c2)CC1` [Compound I-20] has an IC50 [1] of 8 nM, an AUC(0-inf) ([2]; female SD rats) of 1990 ng·h/mL and a Cmax ([2]; female SD rats) of 3330 ng/mL. The Tmax ([2]; female SD rats) was 0.5 h, the half-life ([2]; female SD rats) was 1.42 h and the AUC(0-inf) ([2]; male SD rats) was 2390 ng·h/mL. For the same compound, the Cmax ([2]; male SD rats) was 4240 ng/mL, the Tmax ([2]; male SD rats) was 1 h and the half-life ([2]; male SD rats) was 1.98 h. For the same compound, the IC50 (IDO1 enzyme) was 18 nM.

Work on `COC(=O)C(CCONc1nonc1/C(=N/O)Nc1ccc(F)c(F)c1)NS(N)(=O)=O` (stereo not drawn) [Compound I-22] yielded an IC50 (IDO1 enzyme) of 64 nM.

In the case of `NS(=O)(=O)NC(CO)CONc1nonc1/C(=N/O)Nc1ccc(F)cc1` (stereo not drawn) [Compound I-23], the IC50 [1] is reported as 38 nM and the IC50 (IDO1 enzyme) is reported as 36 nM.

In the case of `NS(=O)(=O)NCCONc1nonc1/C(=N/O)Nc1ccc(F)c(Br)c1` [Compound I-24], the IC50 [1] is reported as 5 nM, the AUC(0-inf) ([2]; female SD rats) is reported as 18700 ng·h/mL and the Cmax ([2]; female SD rats) is reported as 7240 ng/mL. The Tmax ([2]; female SD rats) was 1 h, the half-life ([2]; female SD rats) was 2.34 h and the AUC(0-inf) ([2]; male SD rats) was 20700 ng·h/mL. The Cmax ([2]; male SD rats) was 8760 ng/mL, the Tmax ([2]; male SD rats) was 1 h and the half-life ([2]; male SD rats) was 2.12 h. It also gave an IC50 (IDO1 enzyme) of 8 nM.

Work on `NS(=O)(=O)NCCONc1nonc1/C(=N/O)NCc1ccccc1` [Compound I-25] yielded an IC50 (IDO1 enzyme) of 68 nM.

For `NS(=O)(=O)NCCCCONc1nonc1/C(=N/O)Nc1ccc(F)c(Br)c1` [Compound I-26], the IC50 (IDO1 enzyme) was 92 nM.

`CC(N/C(=N\O)c1nonc1NOCCNS(N)(=O)=O)c1ccccc1` (stereo not drawn) [Compound I-27] showed an IC50 [1] of 26 nM and an IC50 (IDO1 enzyme) of 42 nM.

`NS(=O)(=O)NC1CCC(ONc2nonc2/C(=N/O)Nc2ccc(F)c(F)c2)CC1` (stereo not drawn) [Compound I-31] showed an IC50 (IDO1 enzyme) of 42 nM.

With `O/N=C(\Nc1ccc(F)c(F)c1)c1nonc1NOC1CCC(O)CC1` (stereo not drawn) [Compound I-35] the IC50 (IDO1 enzyme) was 94 nM.

Work on `O/N=C(\Nc1ccc(F)c(F)c1)c1nonc1N1CCCCO1` [Compound I-38] yielded an IC50 (IDO1 enzyme) of 78 nM.

Compound `O/N=C(\Nc1ccc(F)c(F)c1)c1nonc1NOC1CCCCO1` (stereo not drawn) [Compound I-39] has an IC50 (IDO1 enzyme) of 142 nM.

For `O=C(NCCONc1nonc1/C(=N/O)Nc1ccc(F)c(Br)c1)Nc1cc(F)cc(F)c1` [Compound I-40], the AUC(0-inf) ([2]; female SD rats) was 7540 ng·h/mL, the Cmax ([2]; female SD rats) was 4240 ng/mL and the Tmax ([2]; female SD rats) was 1 h. For the same compound, the half-life ([2]; female SD rats) was 1.45 h, the AUC(0-inf) ([2]; male SD rats) was 8250 ng·h/mL and the Cmax ([2]; male SD rats) was 4760 ng/mL. It also gave a Tmax ([2]; male SD rats) of 1 h and a half-life ([2]; male SD rats) of 1.67 h.

`O/N=C(\Nc1ccc(F)c(Br)c1)c1nonc1NOCCONc1nonc1/C(=N/O)Nc1ccc(F)c(Br)c1` [Compound I-43] showed an IC50 [1] of 38 nM and an IC50 (IDO1 enzyme) of 35 nM.

With `NS(=O)(=O)NOCCONc1nonc1/C(=N/O)Nc1ccc(F)c(Br)c1` [Compound I-44] the IC50 (IDO1 enzyme) was 78 nM.

In the case of `O=C1NC(=O)C2(CCC(ONc3nonc3/C(=N/O)Nc3ccc(F)c(F)c3)CC2)N1` (stereo not drawn) [Compound I-49], the IC50 (IDO1 enzyme) is reported as 66 nM.

`O=C(CCC1CCC(ONc2nonc2/C(=N/O)Nc2ccc(F)c(F)c2)CC1)Nc1ccc(F)cc1` (stereo not drawn) [Compound I-50] showed an IC50 [1] of 21 nM and an IC50 (IDO1 enzyme) of 28 nM.

`COC(=O)CSNc1nonc1/C(=N/O)Nc1ccc(F)cc1` [Compound I-51] gave an IC50 (IDO1 enzyme) of 83 nM.

For `NS(=O)(=O)NCCNc1nonc1C(=NO)Nc1ccc(F)c(Br)c1` [INCB024360, Epacadostat, reference compound], the AUC(0-inf) ([2]; female SD rats) was 11300 ng·h/mL, the Cmax ([2]; female SD rats) was 3410 ng/mL and the half-life ([2]; female SD rats) was 2.51 h. The AUC(0-inf) ([2]; male SD rats) was 12200 ng·h/mL, the Cmax ([2]; male SD rats) was 3940 ng/mL and the Tmax ([2]; male SD rats) was 0.5 h. It also gave a half-life ([2]; male SD rats) of 2.24 h.
